Where two headings read alike, the source gives them in different places.
How the values were obtained:
Gastric Motor of Dogs = experiment: Effect (GMS activity) on gastric motor of dogs (strain gauge force transducer, gastric antrum, i.v.); format: in vivo, dogs (Beagles); conditions: for ED200: dogs; for GMS activity compared with starting compound: compared with the respective starting compounds (1) and (2); for gastrointestinal motor promoting effect: in vivo test of dogs, in words
Description: Effect (GMS activity) on Gastric Motor of Dogs was studied.
Beagles having a body weigh of about 10 kg were subjected to laparotomy under pentobarbital anesthesia, and a strain gauge force transducer was attached to the gastric antrum of each of the beagles. The beagles were used for the experiment more than 2 weeks after the operation. A lead wire of the strain gauge force transducer was connected to a recorder through an amplifier and the recorder records gastric contractions. Signals from the amplifier were supplied to a signal processor (NEC Sanei).
Each of the test compounds was dissolved in ethanol, and lactobionic acid (1 mg/mg of test compound) was added thereto, followed by dilution with physiological saline. The resulting solution was intravenously given 15 minutes after termination of the natural interdigestive migrating contractions.
The area of gastric contractions induced by administration of the test compounds was measured by use of the signal processor. Taking the area at the time that the maximum contraction of the interdigestive migrating contractions was kept for 1 minute as 100%, the dosage inducing a contraction area of 200% (ED200 value) was determined from dosage action curves.
The action (GMS activity) of the above-mentioned compounds on the gastric motor of the dogs was measured.
The measurement was carried out in a manner similar to that of Experimental Example 1.

[1] = Physicochemical nature (basicity, fat solubility)
mice = experiment: Acute toxicity test using mice (intravenous injection); format: in vivo; conditions: 100 mg/kg
gastrointestinal motor = experiment: GMS activity of metabolites isolated from dogs; format: in vivo; conditions: metabolites after compound (1), dog 10 mg/kg iv
Procedure: (§1) Namely, the present inventors found an active metabolite in vivo which promoted the gastrointestinal motor function (had GMS activity), when compound (1) or (2) of 14-membered ring macrolides having the structural formula shown in Table 1 below were given to the animals. Compound (1) was intravenously given to the dogs, followed by solvent extraction from the livers 30 minutes after administration, chromatography and preparative HPLC to 15 obtain two active metabolites, compounds (3) and (4). The present inventors were able to determine that the chemical structures of these compounds were 15- and 14-hydroxyl derivatives of compound (1), respectively. Compound (2) was treated similarly to obtain corresponding compounds (7) and (8).
First, the present inventors examined whether or not metabolites promoting the gastrointestinal motor (having GMS activity) were formed in vivo when the compound (1) or (2), the 6,9-hemiacetal-erythromycin derivative known in the art, was given to the animal.
The lactobionate of the compound (1) (10 mg/kg, iv) was injected into the fore-limb of the dog, and the blood, the liver, the bile and the urine were subjected to HP-20 chromatography. After extraction with ethyl acetate, active metabolites were determined. […] The liver was collected 30 minutes after administration, and an extracted concentrated solution thereof was subjected to HP-20 chromatography. […]

[2] = Metabolite formation and distribution in dogs after i.v. lactobionate of compound (1); format: in vivo; conditions: dog, lactobionate of compound (1) 10 mg/kg, iv
Procedure: as §1
The lactobionate of the compound (1) (10 mg/kg, iv) was injected into the fore-limb of the dog, and the blood, the liver, the bile and the urine were subjected to HP-20 chromatography. After extraction with ethyl acetate, active metabolites were determined. […] The liver was collected 30 minutes after administration, and an extracted concentrated solution thereof was subjected to HP-20 chromatography. The 80% v/v methanol/0.005N HCl fraction was extracted with ethyl acetate, and then, the extract was concentrated to obtain a powder. […]

[3] = tested on: gastrointestinal peristaltic movement; conditions: literature; cited from earlier work
[4] = Canis lupus familiaris, iv, Table 3, dose inducing contraction area of 200%, i.v., as lactobionic acid solution, read-out: ED200
[5] = Canis lupus familiaris, iv, Table 4, Experimental Example 2, similar to Experimental Example 1, read-out: ED200

| Structure (SMILES) | ED200 (Gastric Motor of Dogs; [4]) [µg/kg] | GMS activity compared with starting compound (Gastric Motor of Dogs) | gastrointestinal motor promoting effect (Gastric Motor of Dogs) | basicity and fat solubility [1] | further results |
| --- | --- | --- | --- | --- | --- |
| CC[C@H]1OC(=O)[C@H](C)[C@@H](O[C@H]2C[C@@](C)(OC)[C@@H](O)[C@H](C)O2)[C@H](C)[C@@H](O[C@@H]2O[C@H](C)C[C@H](N(C)CC)[C@H]2O)[C@@]2(C)CC(C)=C(O2)[C@H](C)[C@@H](O)[C@]1(C)O [Compound (2), reference compound] | 8 |  |  |  |  |
| CCN(C)[C@H]1C[C@@H](C)O[C@@H](O[C@@H]2[C@@H](C)[C@H](O[C@H]3C[C@@](C)(OC)[C@@H](O)[C@H](C)O3)[C@@H](C)C(=O)O[C@H](C(C)O)[C@@](C)(O)[C@H](O)[C@@H](C)C3=C(C)C[C@@]2(C)O3)[C@@H]1O (stereo partly shown) [Compound (8), N-demethyl-14-hydroxy-N-ethyl-8,9-anhydroerythromycin A 6,9-hemiacetal] | 1.8 | stronger GMS activity than the respective starting compounds | strong gastrointestinal motor promoting effect | basic fat-soluble properties |  |
| CCN(C)[C@H]1C[C@@H](C)O[C@@H](O[C@@H]2[C@@H](C)[C@H](O[C@H]3C[C@@](C)(OC)[C@@H](O)[C@H](C)O3)[C@@H](C)C(=O)O[C@H](CCO)[C@@](C)(O)[C@H](O)[C@@H](C)C3=C(C)C[C@@]2(C)O3)[C@@H]1O [Compound (7), N-demethyl-15-hydroxy-N-ethyl-8,9-anhydroerythromycin A 6,9-hemiacetal] | 3.2 | stronger GMS activity than the respective starting compounds | strong gastrointestinal motor promoting effect | basic fat-soluble properties |  |
| CC1=C2O[C@](C)(C1)[C@H](O[C@@H]1O[C@H](C)C[C@H](N(C)C(C)C)[C@H]1O)[C@@H](C)[C@H](O[C@H]1C[C@@](C)(O)[C@@H](O)[C@H](C)O1)[C@@H](C)C(=O)O[C@H](C(C)O)[C@@](C)(O)[C@H](O)[C@H]2C (stereo partly shown) [Compound (5), 3'-O-demethyl-N-demethyl-14-hydroxy-N-isopropyl-8,9-anhydroerythromycin A 6,9-hemiacetal] |  | stronger GMS activity than the starting compound (1) |  |  | ED200 (Gastric Motor of Dogs; [5]): 0.21 µg/kg |
| CCN(C)[C@H]1C[C@@H](C)O[C@@H](O[C@@H]2[C@@H](C)[C@H](O[C@H]3C[C@@](C)(OC)[C@@H](O)[C@H](C)O3)[C@@H](C)C(=O)O[C@H](C(C)O)[C@@](C)(O)[C@H](O)[C@@H](C)C3=C(C)C[C@@]2(C)O3)[C@@H]1O (stereo partly shown) [lactobionate of the compound (8)] |  |  |  |  | death in acute toxicity test (mice): no case of death was observed |
| CC[C@H]1OC(=O)[C@H](C)[C@@H](O[C@H]2C[C@@](C)(O)[C@@H](O)[C@H](C)O2)[C@H](C)[C@@H](O[C@@H]2O[C@H](C)C[C@H](N(C)C(C)C)[C@H]2O)[C@@]2(C)CC(C)=C(O2)[C@H](C)[C@@H](O)[C@]1(C)O [Compound (6)] |  | stronger GMS activity than the starting compound (1) |  |  | ED200 (Gastric Motor of Dogs; [5]): 0.26 µg/kg |
| CO[C@]1(C)C[C@H](O[C@H]2[C@H](C)[C@@H](O[C@@H]3O[C@H](C)C[C@H](N(C)C(C)C)[C@H]3O)[C@@]3(C)CC(C)=C(O3)[C@H](C)[C@@H](O)[C@](C)(O)[C@@H](C(C)O)OC(=O)[C@@H]2C)O[C@@H](C)[C@@H]1O (stereo partly shown) [Compound (4), N-demethyl-14-hydroxy-N-isopropyl-8,9-anhydorerythromycin A 6,9-hemiacetal] | 0.4 | stronger GMS activity than the respective starting compounds | strong gastrointestinal motor promoting effect | basic fat-soluble properties | GMS activity of metabolites / fractions (gastrointestinal motor): active |
| CC[C@H]1OC(=O)[C@H](C)[C@@H](O[C@H]2C[C@@](C)(OC)[C@@H](O)[C@H](C)O2)[C@H](C)[C@@H](O[C@@H]2O[C@H](C)C[C@H](N(C)C(C)C)[C@H]2O)[C@@]2(C)CC(C)=C(O2)[C@H](C)[C@@H](O)[C@]1(C)O [Compound (1), reference compound] | 0.9 |  |  |  | presence in blood, liver, bile and urine [2]: largely present in the blood; ED200 (Gastric Motor of Dogs; Table 4, Experimental Example 2, similar to Experimental Example 1): 0.9 µg/kg |
| CO[C@]1(C)C[C@H](O[C@H]2[C@H](C)[C@@H](O[C@@H]3O[C@H](C)C[C@H](N(C)C(C)C)[C@H]3O)[C@@]3(C)CC(C)=C(O3)[C@H](C)[C@@H](O)[C@](C)(O)[C@@H](CCO)OC(=O)[C@@H]2C)O[C@@H](C)[C@@H]1O [Compound (3), N-demethyl-15-hydroxy-N-isopropyl-8,9-anhydroerythromycin A 6,9-hemiacetal] | 0.5 | stronger GMS activity than the respective starting compounds | strong gastrointestinal motor promoting effect | basic fat-soluble properties | GMS activity of metabolites / fractions (gastrointestinal motor): active |
| CC[C@H]1OC(=O)[C@H](C)[C@@H](O[C@H]2C[C@@](C)(OC)[C@@H](O)[C@H](C)O2)[C@H](C)[C@@H](O[C@@H]2O[C@H](C)C[C@H](N(C)C)[C@H]2O)[C@](C)(O)C[C@@H](C)C(=O)[C@H](C)[C@@H](O)[C@]1(C)O [ERM A, erythromycin A] |  |  |  |  | motilin-like action / GMS activity [3]: motilin-like action promoting the gastrointestinal peristaltic movement |
